# According to the supplement of paper PMC10307832:
# Tests used:
# Test in all cases: relative viability (nuclei count vs DMSO), 5 days (fraction); higher = more cells survive
# [1] = compound: C1/C(=C\C2=CC=CS2)/C(=O)/C(=C/C3=CC=CS3)/C1 + CC1(C)CCC(c2ccc(Cl)cc2)=C(CN2CCN(c3ccc(C(=O)NS(=O)(=O)c4ccc(N[C@H](CCN5CCOCC5)CSc5ccccc5)c(S(=O)(=O)C(F)(F)F)c4)cc3)CC2)C1 [Navitoclax] (partner 0.5 µM)
# Summary of the method: (§1)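 Lung cancer cell lines in 1536-well plates were dosed by pin tool the day after seeding, either with one drug alone or with a fixed anchor-drug dose plus five library-drug doses (not always all listed) in √10 steps. After 5 days, cells were fixed and their nuclei stained in one step (final 0.05% Triton X-100, 1% formaldehyde, 1 ug/ml Hoechst), then counted on 4× images. Relative viability is the nuclei count in treated wells divided by that in vehicle wells. Values are medians of duplicate plates.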
# TPCA-1 + OSI-027 = compound: C1=CC(=CC=C1C2=CC(=C(S2)NC(=O)N)C(=O)N)F [TPCA-1] + COc1cccc2cc(-c3nc([C@H]4CC[C@H](C(=O)O)CC4)n4ncnc(N)c34)[nH]c12 [OSI-027] (partner 0.5 µM)
# Summary of the method: as §1
# [2] = compound: C[C@]12O[C@H](C[C@]1(O)CO)n1c3ccccc3c3c4c(c5c6ccccc6n2c5c31)CNC4=O [Lestaurtinib] + CC(=O)Nc1cccc(-n2c(=O)n(C3CC3)c(=O)c3c(Nc4ccc(I)cc4F)n(C)c(=O)c(C)c32)c1 [Trametinib] (partner 0.02 µM)
# Summary of the method: as §1
# [3] = compound: C[C@]12O[C@H](C[C@]1(O)CO)n1c3ccccc3c3c4c(c5c6ccccc6n2c5c31)CNC4=O [Lestaurtinib] + C[C@]1(O)C[C@@H](c2nc(-c3ccc4ccc(-c5ccccc5)nc4c3)c3c(N)nccn32)C1 [Linsitinib] (partner 1 µM)
# Summary of the method: as §1
Cell Line,relative viability ([1]; first compound 0.2 µM),relative viability ([1]; first compound 0.6325 µM),relative viability ([1]; first compound 2 µM),relative viability ([1]; first compound 6.325 µM),relative viability ([1]; first compound 20 µM),relative viability (TPCA-1 + OSI-027; first compound 0.04 µM),relative viability (TPCA-1 + OSI-027; first compound 0.1265 µM),relative viability (TPCA-1 + OSI-027; first compound 0.4 µM),relative viability (TPCA-1 + OSI-027; first compound 1.265 µM),relative viability (TPCA-1 + OSI-027; first compound 4 µM),relative viability ([2]; first compound 0.005 µM),relative viability ([2]; first compound 0.01581 µM),relative viability ([2]; first compound 0.05 µM),relative viability ([2]; first compound 0.1581 µM),relative viability ([2]; first compound 0.5 µM),relative viability ([3]; first compound 0.005 µM),relative viability ([3]; first compound 0.01581 µM),relative viability ([3]; first compound 0.05 µM),relative viability ([3]; first compound 0.1581 µM),relative viability ([3]; first compound 0.5 µM)
EMC-BAC-2,1.21,1.11,1.13,1.05,1.1,0.383,0.38,0.45,0.221,0.265,0.926,0.905,0.973,0.748,0.415,0.764,0.801,0.641,0.45,0.221
LK-2,0.824,0.956,0.702,0.862,0.89,0.222,0.174,0.232,0.205,0.198,0.778,0.941,0.718,0.65,0.293,0.456,0.847,0.403,0.394,0.176
SW 1573,0.908,0.979,1.15,0.862,0.833,0.898,0.402,0.641,0.666,0.438,0.712,0.672,0.491,0.367,0.144,0.796,0.841,0.695,0.615,0.222
NCI-H2405,1.23,0.892,1.15,0.766,1.08,0.673,0.6,0.65,0.36,0.629,0.701,0.656,0.572,0.54,0.274,0.934,0.703,0.674,0.612,0.241
NCI-H2087,1.13,1.04,0.933,0.669,1.05,0.554,0.444,0.537,0.414,0.207,0.201,0.264,0.203,0.23,0.187,1,0.923,0.709,0.648,0.275
NCI-H460,1.26,1.34,1.12,–,1.14,0.794,0.642,0.631,0.584,0.137,0.237,0.201,0.144,0.142,0.0705,0.24,0.433,0.17,0.262,0.0291
LOU-NH91,0.726,0.744,0.724,0.581,0.723,0.75,0.662,0.735,0.793,0.73,0.759,0.749,0.679,0.625,0.548,0.912,0.887,0.773,0.603,0.45
NCI-H1651,1.25,1.01,1.07,–,1.11,0.756,0.612,0.648,0.741,0.544,0.86,0.919,0.887,0.832,0.77,0.985,1.06,0.969,0.695,0.438
NCI-H441,0.779,0.769,0.523,0.527,0.572,0.841,0.443,0.511,0.302,0.201,0.458,0.441,0.346,0.389,0.34,0.446,0.547,0.182,0.339,0.27
